Measurements as given in article PMC5557808 (Nature Communications, 2017).
Values belong to the compound of their own block, whether it stands above or below them.

Key:
human tongue = details: cited from earlier work
Protocol: Sensor design was driven by physiological insights on taste. Structurally diverse molecules are bitter tasting, including polyphenols, flavonoids, or methylxanthines (caffeine)[3]. The main function of sensing bitter taste is linked to the detection of poisonous substances. This would readily explain why bitter taste is so sensitively recognized with some molecules being recognized in the nanomolar range[4]. The human tongue senses bitterness of denatonium down to concentrations of 10 nM with consumer products containing as little as 30–100 ppm[5]. […] To date, it is the mo s t bitter substance known and th e b itter taste can be detected at concentrations of 10 ppb 2. Because of its lower toxicity as co mpar ed to the b itter molecules brucine 3 or str ychnin e it is wid el y used as an additive for denaturing alcohol, deter gents, dis ...

MMP-8 [1] = molecular target: T1, MMP-8 (Homo sapiens, UniProt P22894); experiment: MMP-8 cleavage of soluble PCL conjugates (HPLC decrease of main peak); format: biochemical; details: 900 ng/mL MMP-8, after 360 min; 0.5 mg/mL substrate, MMP-8 buffer pH 6.8-7.0, 37 °C under agitation; HPLC; mean, n = 8
T1 construct: purchased EMD Millipore Corporation (Billerica, MA)
Protocol: Pro-MMPs (e.g., MMP-8, MMP-1, or MMP-9; used at 0.1 mg/mL and >100.0 mU/mg based on the manufacturer’s information) were activated with p-aminophenylmercuric acetate (APMA) (8). For that, a 10 mM stock solution of APMA was freshly prepared in 0.1 M NaOH and a 10:1 (v/v) ratio of the respective proenzyme and the APMA solution (MMP:APMA) was incubated for 3 h at 37 °C. The activity was confirmed using the MMP-8 detection kit (QuickZyme Biosciences, Leiden, the Netherlands). A stock solution (90 µg/mL) of the activated MMP was prepared (used for cleavage studies on the PCL or the fully assembled microparticle-PCL-tastant setup (sensor), in MMP-8 buffer (200 mM NaCl, 50 mM Tris-HCl, 5 mM CaCl2, 1 µM ZnCl2, 0.05% Brij 35 at pH 6.8–7.0). All MMP experiments are described in detail in the Supplementary Methods. […]
in water ( v/v)) and eluent B (0.1 % TFA in 2:3 water-acetonitrile (v/v)) and a gradient from 33 to 80% elu ent B within 30 minutes. UV absorption was r ead at λ = 280 nm or 220 nm. After freezing the samples at -80 °C, fr eeze- drying was performed on a Christ Alpha 1 -4 de vi ce (Martin Christ Gefriertrocknungs anlagen, Osterode am Harz, G e r ma n y) at a desublimers ’ te mperature of - 60 ° C, pressure of 1.030 mbar and processing temperature of 19 °C.
Pro-MMPs (e. g. MMP -8, MMP -1 or MMP-9; adapted to 0.1 mg/mL and > 100.0 mU/mg based on manufacturer information and when appropriate) were activated with APMA 8. For that, a 10 mM stock solution of APMA in 0.1 M NaOH was freshly prepared and a 10:1 (v/v) ratio of the r especti ve proenzyme and APMA solution (MMP:APMA) was incubated for 3 h at 37 °C. The activity was conf ir med using the MMP-8 detection kit (Q uic kZ ym e® Biosciences, Leiden, Netherlands). A stock solution (90 µg/mL) of the activated MMP was prepared (used for cleavage studies on the pr ot eas e-cleavable linker (PCL; e.g. Figure 2) or the fully assemb led microparticle -PCL- t ast ant setup (sensor; e.g. Figure 3) , in MMP -8 buffer (200 mM NaCl, 50 mM Tris-H Cl, 5 mM C aC l2, 1 µM ZnCl2, 0.05 % Brij35 at pH 6.8- 7.0). A ll MMP -8 exp eriments wer e performed as follo ws. 25 µg of the sensor ( see chap ter : Peptide-coupling to beads (Sensor)) in 100 µL MMP-buffer or 1 mg of FP LC -purified and lyophilized PCL as described dissolved 2 mL M MP -buffer resulting in a final concentration of 0.5 mg/ mL substrate was used. […]
Figure 2A , 3, 4B ). […]
(sensor) in co mpar ison to negative controls (the negative controls for the PCL an d sensor exper i men ts were b y incubation without MMP under otherwise identical conditions). The relative d ecreas e of the PCL’s ma in peak was char act er ized by HPLC (PCL) or of the sensor’s fluorescence b y FACS (sensor) in comparison to control. […]

[2] = system: MMP-1, MMP-8, MMP-9, MMP-13; experiment: MMP selectivity of the soluble PCL carboxyfluorescein conjugate; format: biochemical, human; details: MMPs at 900 ng/mL, 60 min, 37 °C; HPLC
Protocol: Pro-MMPs (e.g., MMP-8, MMP-1, or MMP-9; used at 0.1 mg/mL and >100.0 mU/mg based on the manufacturer’s information) were activated with p-aminophenylmercuric acetate (APMA) (8). For that, a 10 mM stock solution of APMA was freshly prepared in 0.1 M NaOH and a 10:1 (v/v) ratio of the respective proenzyme and the APMA solution (MMP:APMA) was incubated for 3 h at 37 °C. The activity was confirmed using the MMP-8 detection kit (QuickZyme Biosciences, Leiden, the Netherlands). […]
Enzymatic reactions were stopped using 4 µL 250 mM ED TA in case of the sensor or heating in cas e of uncoupled PCL (95 °C for 15 minutes; the beads of the sensor would melt at h eatin g due to a different method used). Cleavage was analyzed by […] an al ysis (PCL) or by flow c yto metr y (sensor) in co mpar ison to negative controls (the negative controls for the PCL an d sensor exper i men ts were b y incubation without MMP under otherwise identical conditions). The relative d ecreas e of the PCL’s ma in peak was char act er ized by HPLC (PCL) or of the sensor’s fluorescence b y FACS (sensor) in comparison to control. […]

[3] = system: Leucine aminopeptidase (AP); experiment: AP-incubated peptide (without MMP-8); details: porcine kidney
MMP-8 [4] = experiment: MMP-8 buffer (200 mM NaCl, 50 mM Tris-HCl, 5 mM CaCl2, 1 µM ZnCl2, 0.05% Brij 35 at pH 6.8–7.0); details: human, 37 °C, up to 6 hours
MMP-8 [5] = experiment: MMP-8 in MMP-8 buffer; details: human, 37 °C, up to 22 h
[6] = system: Leucine aminopeptidase from porcine kidney; experiment: AP buffer (50 mM Tris-HCl, 1 mM CaCl2 and 150 mM NaCl at pH 7.0); details: 37 °C, up to 20 h
[7] = system: Leucine aminopeptidase (AP); experiment: AP buffer (50 mM Tris-HCl, 1 mM CaCl2, and 150 mM NaCl at pH 7.0); details: porcine kidney, 37 °C, up to 20 h

T1 sequence (P22894 101-467): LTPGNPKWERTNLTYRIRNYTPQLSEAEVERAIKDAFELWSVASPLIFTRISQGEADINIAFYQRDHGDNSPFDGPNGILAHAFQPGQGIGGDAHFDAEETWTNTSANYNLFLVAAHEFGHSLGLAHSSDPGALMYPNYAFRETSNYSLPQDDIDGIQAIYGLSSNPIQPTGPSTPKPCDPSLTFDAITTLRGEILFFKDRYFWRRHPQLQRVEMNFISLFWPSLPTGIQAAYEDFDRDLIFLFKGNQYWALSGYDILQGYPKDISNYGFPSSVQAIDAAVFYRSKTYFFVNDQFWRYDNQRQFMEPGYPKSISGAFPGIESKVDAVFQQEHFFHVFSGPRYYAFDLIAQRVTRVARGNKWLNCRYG

Compound: CC[N+](CC)(CC(=O)Nc1c(C)cccc1C)Cc1ccccc1.[Cl-] [Denatonium chloride]
concentration at which the bitter taste can be detected (human tongue; ref 2 (Supplementary References)): 10 ppb

Compound: CC[N+](CC)(CC(=O)Nc1c(C)cccc1C)Cc1ccccc1 [Denatonium, Denatonium benzoate]
concentration down to which the human tongue senses bitterness (human tongue): 10 nM

Cleavage (%) of the PCL over incubation time, plateau (MMP-8 [1]): > 50%
Compound: Cf-GP QGIA GQ-A( N3)-Q [ID #1b, PCL carboxyfluorescein conjugate]
MMP sensitivity rank order of the soluble PCL conjugate [2]: MMP-8 = MMP-9 > MMP-13 > MMP-1

cleaved bond (MMP-8 [4]): G-I | cleaved bond (MMP-8 [5]): G-I
Compound: De-GPQGIAGQ-A( N3)-Q
not cleaved [3]: one HPLC-peak at 7.178 min with a mass of 1331.9 Da, as negative control

Compound: De-GPQGIAGQ-A(N3)-Q
not cleaved [6]: one HPLC peak, mass 1331.9 Da after AP incubation

fragment found [7]: denatonium coupled to lysine
Compound: I AGQ-K-De
